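The compound was tested at five concentrations on cells cultured in 96-well plates, with a 48-hour exposure period. GI50 is the concentration that inhibits growth by half.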 Activity calls are given as the source filed them. Rule as the data show it: active = GI50 up to about 1.1 µM and inactive = higher.
How the values were obtained:
Experiment in all cases: NCI tumour cell line growth inhibition, 48 h
K562 = test system: K562
MDA-MB-435 = test system: MDA-MB-435
RXF 393 = test system: RXF 393
SW-620 = test system: SW-620
SNB-19 = test system: SNB-19
OVCAR-3 = test system: OVCAR-3
HOP-62 = test system: HOP-62
PC-3 = test system: PC-3
HOP-92 = test system: HOP-92
NCI-H460 = test system: NCI-H460
IGROV-1 = test system: IGROV-1
EKVX = test system: EKVX
NCI-H522 = test system: NCI-H522
NCI-H23 = test system: NCI-H23
SK-MEL-28 = test system: SK-MEL-28
MCF7 = test system: MCF7
HCC 2998 = test system: HCC 2998
BT-549 = test system: BT-549
KM12 = test system: KM12
UACC-257 = test system: UACC-257
SK-MEL-2 = test system: SK-MEL-2
A498 = test system: A498
OVCAR-8 = test system: OVCAR-8
SK-MEL-5 = test system: SK-MEL-5
M14 = test system: M14
TK-10 = test system: TK-10
Malme-3M = test system: Malme-3M
MOLT-4 = test system: MOLT-4
COLO 205 = test system: COLO 205
HCT-15 = test system: HCT-15
SNB-75 = test system: SNB-75
MDA-MB-231 = test system: MDA-MB-231
A549 = test system: A549
NCI/ADR-RES = test system: NCI/ADR-RES
OVCAR-5 = test system: OVCAR-5
CCRF-CEM = test system: CCRF-CEM
UACC-62 = test system: UACC-62
SK-OV-3 = test system: SK-OV-3
SN12C = test system: SN12C
UO-31 = test system: UO-31
OVCAR-4 = test system: OVCAR-4
CAKI-1 = test system: CAKI-1
MDA-N = test system: MDA-N
SF-268 = test system: SF-268
SR = test system: SR
HT-29 = test system: HT-29
SF-539 = test system: SF-539
NCI-H226 = test system: NCI-H226
SF-295 = test system: SF-295
ACHN = test system: ACHN
U-251 = test system: U-251
DU-145 = test system: DU-145
HCT-116 = test system: HCT-116
Hs-578T = test system: Hs-578T
T47D = test system: T47D

Q: What does the source list for CN1CCOC(c2ccc(Cl)cc2)O1 (stereo not drawn)?
A: GI50 (K562): > 100 µM (inactive); GI50 (MDA-MB-435): > 100 µM (inactive); GI50 (RXF 393): > 100 µM (inactive); GI50 (SW-620): > 100 µM (inactive); GI50 (SNB-19): > 100 µM (inactive); GI50 (OVCAR-3): > 100 µM (inactive); GI50 (HOP-62): > 100 µM (inactive); GI50 (PC-3): > 100 µM (inactive); GI50 (HOP-92): > 100 µM (inactive); GI50 (NCI-H460): > 100 µM (inactive); GI50 (IGROV-1): > 100 µM (inactive); GI50 (EKVX): > 100 µM (inactive); GI50 (NCI-H522): > 100 µM (inactive); GI50 (NCI-H23): > 100 µM (inactive); GI50 (SK-MEL-28): > 100 µM (inactive); GI50 (MCF7): > 100 µM (inactive); GI50 (HCC 2998): > 100 µM (inactive); GI50 (BT-549): > 100 µM (inactive); GI50 (KM12): > 100 µM (inactive); GI50 (UACC-257): > 100 µM (inactive); GI50 (SK-MEL-2): > 100 µM (inactive); GI50 (A498): > 100 µM (inactive); GI50 (OVCAR-8): > 100 µM (inactive); GI50 (SK-MEL-5): > 100 µM (inactive); GI50 (M14): > 100 µM (inactive); GI50 (TK-10): > 100 µM (inactive); GI50 (Malme-3M): > 100 µM (inactive); GI50 (MOLT-4): > 100 µM (inactive); GI50 (COLO 205): > 100 µM (inactive); GI50 (HCT-15): > 100 µM; GI50 (SNB-75): > 100 µM (inactive); GI50 (MDA-MB-231): > 100 µM (inactive); GI50 (A549): > 100 µM (inactive); GI50 (NCI/ADR-RES): > 100 µM (inactive); GI50 (OVCAR-5): > 100 µM (inactive); GI50 (CCRF-CEM): > 100 µM (inactive); GI50 (UACC-62): > 100 µM (inactive); GI50 (SK-OV-3): > 100 µM (inactive); GI50 (SN12C): > 100 µM (inactive); GI50 (UO-31): > 100 µM (inactive); GI50 (OVCAR-4): > 100 µM (inactive); GI50 (CAKI-1): > 100 µM (inactive); GI50 (MDA-N): > 100 µM (inactive); GI50 (SF-268): > 100 µM (inactive); GI50 (SR): > 100 µM (inactive); GI50 (HT-29): > 100 µM (inactive); GI50 (SF-539): > 100 µM (inactive); GI50 (NCI-H226): > 100 µM (inactive); GI50 (SF-295): > 100 µM (inactive); GI50 (ACHN): > 100 µM (inactive); GI50 (U-251): > 100 µM (inactive)

Q: What does the source list for Nc1nc(N)c2ncn(-c3ccccc3)c2n1?
A: GI50 (MDA-MB-435): > 100 µM (inactive); GI50 (RXF 393): 57.9 µM (inactive); GI50 (OVCAR-3): 89.9 µM (inactive); GI50 (DU-145): > 100 µM (inactive); GI50 (PC-3): > 100 µM (inactive); GI50 (HOP-92): > 100 µM (inactive); GI50 (IGROV-1): 36.3 µM (inactive); GI50 (NCI-H522): > 100 µM (inactive); GI50 (NCI-H23): > 100 µM (inactive); GI50 (SK-MEL-28): > 100 µM (inactive); GI50 (MCF7): 63.8 µM (inactive); GI50 (HCC 2998): 48.4 µM (inactive); GI50 (BT-549): > 100 µM (inactive); GI50 (KM12): 24.2 µM (inactive); GI50 (A498): > 100 µM (inactive); GI50 (OVCAR-8): > 100 µM (inactive); GI50 (M14): > 100 µM (inactive); GI50 (TK-10): > 100 µM (inactive); GI50 (MOLT-4): 29.6 µM (inactive); GI50 (HCT-15): > 100 µM; GI50 (MDA-MB-231): > 100 µM (inactive); GI50 (A549): 48.9 µM (inactive); GI50 (NCI/ADR-RES): > 100 µM (inactive); GI50 (OVCAR-5): > 100 µM (inactive); GI50 (CCRF-CEM): 23.7 µM (inactive); GI50 (UACC-62): 71 µM (inactive); GI50 (SK-OV-3): > 100 µM (inactive); GI50 (SN12C): 88.3 µM (inactive); GI50 (UO-31): 68.2 µM (inactive); GI50 (HCT-116): > 100 µM (inactive); GI50 (CAKI-1): 82.6 µM (inactive); GI50 (SF-268): > 100 µM (inactive); GI50 (HT-29): > 100 µM (inactive); GI50 (Hs-578T): 52.6 µM (inactive); GI50 (SF-295): > 100 µM (inactive); GI50 (T47D): > 100 µM (inactive); GI50 (ACHN): > 100 µM (inactive)

— ChEMBL document CHEMBL1201862, “PubChem BioAssay data set” (2004)
